Consider 1 molecule from ChEMBL document CHEMBL1146819, “Synthesis and SAR of 2-arylbenzoxazoles, benzothiazoles and benzimidazoles as inhibitors of lysophosphatidic acid acyltransferase-beta” (Bioorg Med Chem Lett, 2004).

Experiment [1] addresses T1, 1-acyl-sn-glycerol-3-phosphate acyltransferase alpha (Homo sapiens) (UniProt Q99943).
T1 sequence (whole entry): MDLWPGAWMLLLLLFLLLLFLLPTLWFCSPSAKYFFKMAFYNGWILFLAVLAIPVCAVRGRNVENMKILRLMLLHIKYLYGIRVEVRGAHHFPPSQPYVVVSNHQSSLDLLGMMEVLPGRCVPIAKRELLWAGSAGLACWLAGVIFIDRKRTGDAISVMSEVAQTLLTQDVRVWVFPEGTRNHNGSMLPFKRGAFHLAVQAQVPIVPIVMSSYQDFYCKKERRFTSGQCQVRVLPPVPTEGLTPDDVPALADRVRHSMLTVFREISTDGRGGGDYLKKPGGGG
The experiment can be described thus: Inhibitory activity against human lysophosphatidic acid acyltransferase-alpha (LPAAT-alpha) expressed in Sf9 insect cell membranes at <20 uM; Not active.

A further experiment has as its system MCF7. The experiment can be described thus: In vitro inhibitory concentration of compound against proliferation of MCF-7 breast carcinoma cells; Range is 30-40 uM. In kind it is functional, cell-based. As to conditions: Homo sapiens.
A further experiment has as its system DU-145. Briefly: In vitro inhibitory concentration of compound against proliferation of DU145 prostate carcinoma cells. The settings on record: Homo sapiens. Type of experiment: functional, cell-based.

Activity calls are given as the source filed them.

Consider `C#CCOC(=O)Nc1ccc(Cl)c(-c2nc3cc(C(F)(F)F)ccc3s2)c1`, for which, in experiment [1], the outcome was inactive. Also, the IC50 (usually the midpoint of a concentration-inhibition curve) is 40 µM in the experiment on MCF7 and 20 µM with DU-145.
